Source: paper PMC6429436 (Bioconjugate Chemistry, 2019)
“And” between values parts separate entries of the source, which are not always exact repeats. Equal entries are not always repeated.

Assays:
CTB = settings: LeY-CTB binding, secondary binding site; cited from earlier work
cholera toxin B-subunit = cholera toxin B-subunit (Vibrio cholerae serotype O1, UniProt P01556); experiment: biochemical; type: binding
[1] = tested on: CT-induced swelling of intestinal organoids; experiment: cells; type: cell-based, human

Sequence of cholera toxin B-subunit (P01556 22-124 limits assumed): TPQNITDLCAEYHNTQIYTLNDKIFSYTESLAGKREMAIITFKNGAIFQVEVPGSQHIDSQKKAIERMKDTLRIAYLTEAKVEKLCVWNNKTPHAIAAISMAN

| Structure (SMILES) | Kd (CTB) [mM] | rel. pot. (cholera toxin B-subunit) | rel. pot. per sugar (cholera toxin B-subunit) | IC50 (cholera toxin B-subunit; IC50 (μg/mL)) [mM] | rel. pot. [1] | rel. pot. per sugar [1] | IC50 ([1]; Homo sapiens) |
| --- | --- | --- | --- | --- | --- | --- | --- |
| CC(=O)N[C@@H]1[C@@H](O[C@@H]2O[C@@H](C)[C@@H](O)[C@@H](O)[C@@H]2O)[C@H](O[C@@H]2O[C@H](CO)[C@H](O)[C@H](O)[C@H]2O[C@@H]2O[C@@H](C)[C@@H](O)[C@@H](O)[C@@H]2O)[C@@H](CO)O[C@H]1O [LeY] | 1.4 |  |  |  |  |  |  |
| O=C[C@H](O)[C@@H](O)[C@@H](O)[C@H](O)CO [galactose] |  | 1 | 1 | 111 | 1 | 1 | 100 mM and 18000 µg/mL |
